Assay results taken from patent publication US20240115557A1, “INHIBITORS OF RNA-GUIDED NUCLEASES AND USES THEREOF” (The Brigham and Women's Hospital, Inc., priority 2022, published 2024).

How the values were obtained:
SpCas9:gRNA complex [1] = biological target: T1, SpCas9:gRNA complex (Streptococcus pyogenes serotype M1, UniProt Q99ZW2); conditions: control without BRD7586 scaffold
SpCas9 = SpCas9 (Streptococcus pyogenes serotype M1, UniProt Q99ZW2); experiment: T7E1 assay for indels at the eGFP gene; assay type: cell-based; conditions: U2OS.eGFP.PEST, 24 h
Chain of SpCas9 (Q99ZW2 whole entry): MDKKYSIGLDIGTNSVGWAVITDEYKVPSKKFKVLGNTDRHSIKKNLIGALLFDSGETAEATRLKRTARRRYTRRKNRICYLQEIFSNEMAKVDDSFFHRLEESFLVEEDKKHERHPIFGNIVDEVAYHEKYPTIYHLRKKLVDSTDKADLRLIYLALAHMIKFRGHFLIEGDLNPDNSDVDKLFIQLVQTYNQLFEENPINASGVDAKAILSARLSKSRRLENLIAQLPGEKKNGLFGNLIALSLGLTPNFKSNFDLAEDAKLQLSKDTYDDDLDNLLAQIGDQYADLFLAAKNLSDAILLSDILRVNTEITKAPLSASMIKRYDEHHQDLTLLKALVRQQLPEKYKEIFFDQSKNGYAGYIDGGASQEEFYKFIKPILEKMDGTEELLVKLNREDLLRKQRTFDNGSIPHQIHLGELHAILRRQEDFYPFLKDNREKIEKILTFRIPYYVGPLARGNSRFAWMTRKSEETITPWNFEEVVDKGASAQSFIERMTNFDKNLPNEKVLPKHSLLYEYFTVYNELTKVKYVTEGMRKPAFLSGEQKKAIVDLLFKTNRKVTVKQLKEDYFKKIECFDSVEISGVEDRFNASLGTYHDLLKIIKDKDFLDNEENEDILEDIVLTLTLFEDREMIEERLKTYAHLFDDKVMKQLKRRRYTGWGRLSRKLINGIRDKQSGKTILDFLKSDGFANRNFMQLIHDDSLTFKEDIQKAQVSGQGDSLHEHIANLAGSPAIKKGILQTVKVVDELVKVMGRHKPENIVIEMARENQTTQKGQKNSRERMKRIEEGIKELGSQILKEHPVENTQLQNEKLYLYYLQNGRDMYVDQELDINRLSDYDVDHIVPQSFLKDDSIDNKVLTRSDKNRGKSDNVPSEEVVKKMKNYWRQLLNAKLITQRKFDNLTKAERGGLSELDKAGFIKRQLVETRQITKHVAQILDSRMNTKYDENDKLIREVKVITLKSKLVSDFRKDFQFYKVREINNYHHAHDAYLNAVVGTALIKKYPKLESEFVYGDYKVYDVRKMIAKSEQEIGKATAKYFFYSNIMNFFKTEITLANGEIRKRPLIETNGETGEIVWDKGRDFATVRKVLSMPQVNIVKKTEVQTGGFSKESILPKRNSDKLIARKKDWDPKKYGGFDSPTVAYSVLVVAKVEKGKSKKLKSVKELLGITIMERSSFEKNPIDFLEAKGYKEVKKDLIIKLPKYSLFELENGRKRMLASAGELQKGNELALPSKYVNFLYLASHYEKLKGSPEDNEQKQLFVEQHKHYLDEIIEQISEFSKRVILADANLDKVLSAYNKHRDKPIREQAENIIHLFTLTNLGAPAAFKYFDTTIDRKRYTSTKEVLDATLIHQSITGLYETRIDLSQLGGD
Experimental: FIG. 72A-72E Validation of BRD7586 in cells FIG. 72A T7E1 assay for detecting indels at the eGFP gene. U20S.eGFP.PEST cells were nucleofected with plasmid and incubated with BRD7586 for 24 h. Blue arrowheads indicate uncleaved DNA and black arrowheads indicate cleaved DNA. FIG. 72B T7E1 for detecting indels at the eGFP gene. U20S.eGFP.PEST cells were nucleofected with RNP and incubated with BRD7586 for 24 h. Blue arrowheads indicate uncleaved DNA and black arrowheads indicate cleaved DNA FIG. 72C Inhibition of SpCas9 by BRD0539 and BRD7586 in the eGFP disruption assay using plasmid delivery method and RNP delivery method (U20S.eGFP.PEST cells, 24 h). Error bars represent SD from 3 or 4 independent experiments. […]
FIG. 75A-75E Mechanism of action studies of BRD7586 FIG. 75A Workflow of the chemoproteomics experiments using the diazirine-based photo-crosslinking probe to identify binding sites of BRD7586 on SpCas9 FIG. 75B T7E1 assay for measuring the activity of Diazirine-BRD7586. […] Blue arrowheads indicate uncleaved DNA while black arrowheads indicate cleaved DNA from the T7E1 reaction FIG. 75C Chemical structure of the acid-cleavable and isotope-coded biotin-azide used for chemoproteomics experiments FIG. 75D Structure of the peptide-compound conjugates to be detected from the mass spectrometry. […]

SpCas9:gRNA = SpCas9:gRNA (Streptococcus pyogenes serotype M1, UniProt Q99ZW2); experiment: Photo-crosslinking to purified SpCas9:gRNA; assay type: binding; conditions: 1 μM probe, 1 μM SpCas9:gRNA, UV 365 nm
Chain of SpCas9:gRNA (Q99ZW2 whole entry): as above
Experimental: Cas9 RNP complex was formed by mixing Cas9 (1 μM) and the eGFP-targeting gRNA (1 μM) in a binding buffer (HEPES 20 mM, KCl 100 mM, pH 7.6) for 15 min. Next, BRD7586 (5 μM) was added to the mixture when competition is required (the last lane of FIG. 68B). Finally, Diazirine-BRD7586 was added (1 μM) and the mixture was incubated for 20 min at RT with a final reaction volume of 20 μL in a PCR tube. The mixture was irradiated with UV (365 nm) for 5 min on ice, then 2.5 μL of 10% RapiGest SF solution in PBS was added. Click chemistry was initiated by adding 100 μM of TAMRA-azide (Sigma #760757), 350 μM of Cu-TBTA, and 1.5 mM ascorbate with a final reaction volume of 27 μL. The reaction was conducted for 1 h at 30° C., then SDS-PAGE was performed immediately. The fluorescence gel scanning was conducted using an Azure 600 (Azure Biosystem) to detect the TAMRA fluorescence.

SpCas9:gRNA complex [2] = biological target: T1, SpCas9:gRNA complex; experiment: biochemical

T1 sequence (Q99ZW2 whole entry, one chain of several): as the sequence (Q99ZW2 whole entry) above

[N-]=[N+]=NCCOCCOCCOCCNC(=O)CCCC[C@@H]1SC[C@@H]2NC(=O)N[C@@H]21 [biotin-PEG3-azide]
Binding in BLI (SpCas9:gRNA complex [1]): No detectable binding

C#CCCC1(CCOc2ccc(S(=O)(=O)CCC(=O)Nc3nc(-c4ccncc4)cs3)cc2)N=N1 [diazirine-BRD7586]
Inhibition of SpCas9 in cells by probe (SpCas9): inhibited SpCas9 in cells
Photo-crosslinking to SpCas9 (SpCas9:gRNA): successful covalent conjugation of the probe to SpCas9

O=C(CCCCC1SC[C@H]2NC(=O)N[C@@H]12)NCCOCCOCCOCCC(=O)NCCOc1ccc(S(=O)(=O)CCC(=O)Nc2nc(-c3ccncc3)cs2)cc1 (stereo partly shown) [biotin-BRD7586]
Kd (SpCas9:gRNA complex [2]): 520 nM
